Results: ChEMBL document CHEMBL3769343, “Spiromastilactones: A new class of influenza virus inhibitors from deep-sea fungus” (Eur J Med Chem, 2016)

Tests used:
Assay type in all cases: functional, organism-based
Influenza A virus [1] = experiment: Antiviral activity against amantadine-resistant influenza A virus HN/1222 (H3N2) infected in dog MDCK cells assessed as inhibition of virus induced cytopathic effect after 40 hrs by Cell-Titer-Glo assay
Influenza A virus [2] = experiment: Antiviral activity against oseltamivir-resistant influenza A virus LN/1109 (H1N1) infected in dog MDCK cells assessed as inhibition of virus induced cytopathic effect after 40 hrs by Cell-Titer-Glo assay
Influenza A virus [3] = experiment: Antiviral activity against amantadine-resistant influenza A virus JX/312 (H3N2) infected in dog MDCK cells assessed as inhibition of virus induced cytopathic effect after 40 hrs by Cell-Titer-Glo assay

| Compound | EC50 (Influenza A virus [1]) [µM] | EC50 (Influenza A virus [2]) [µM] | EC50 (Influenza A virus [3]) [µM] |
| --- | --- | --- | --- |
| NC(=O)c1ncn([C@@H]2O[C@H](CO)[C@@H](O)[C@H]2O)n1 [RIBAVIRIN] | 3.56 | 1.05 | 1.43 |
| CCOC(=O)C1=C[C@@H](OC(CC)CC)[C@H](NC(C)=O)[C@@H](N)C1 [OSELTAMIVIR] | > 200 | 0.82 | 9.75 |
| NC12CC3CC(CC(C3)C1)C2 [AMANTADINE] | > 20.5 | > 200 | 4.28 |
| CCCc1c(Cl)c(O)cc(OC)c1Oc1c(Cl)c(O)c(Cl)c2c1C(=O)O[C@@H]2CC | 38.5 | 33.5 | 35.3 |
